Laboratory results as given in patent publication US9242970B2 (ACTELION PHARMACEUTICALS LTD., priority 2010, dated 2016).

Tests used:
[1] = molecular target: human orexin-1 receptor (Homo sapiens (Human), UniProt O43613); experiment: In vitro assay: intracellular calcium measurements (FLIPR), antagonistic activity; type: cell-based; settings: CHO cells, 3 nM orexin-A, compound incubation 120 min; marked values are geometric means of n = 2-6; read-out: IC50 OX1
[2] = molecular target: human orexin-2 receptor (Homo sapiens (Human), UniProt O43614); experiment: as above; type: cell-based; settings: CHO cells, 3 nM orexin-A, compound incubation 120 min; marked values are geometric means of n = 2-6; read-out: IC50 OX2
Sequence of human orexin-2 receptor (O43614 whole entry): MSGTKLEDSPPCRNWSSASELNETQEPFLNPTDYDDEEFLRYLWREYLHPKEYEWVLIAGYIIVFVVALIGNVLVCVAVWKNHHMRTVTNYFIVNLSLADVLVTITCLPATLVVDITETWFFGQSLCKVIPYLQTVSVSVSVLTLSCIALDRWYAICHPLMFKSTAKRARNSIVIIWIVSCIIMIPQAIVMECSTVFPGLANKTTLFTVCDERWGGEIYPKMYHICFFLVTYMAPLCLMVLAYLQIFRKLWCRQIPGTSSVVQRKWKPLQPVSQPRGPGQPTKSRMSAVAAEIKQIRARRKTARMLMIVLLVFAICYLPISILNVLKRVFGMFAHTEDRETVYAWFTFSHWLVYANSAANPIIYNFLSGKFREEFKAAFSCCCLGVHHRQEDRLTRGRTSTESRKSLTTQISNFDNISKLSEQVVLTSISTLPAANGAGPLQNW

Sequence of human orexin-1 receptor (O43613 whole entry): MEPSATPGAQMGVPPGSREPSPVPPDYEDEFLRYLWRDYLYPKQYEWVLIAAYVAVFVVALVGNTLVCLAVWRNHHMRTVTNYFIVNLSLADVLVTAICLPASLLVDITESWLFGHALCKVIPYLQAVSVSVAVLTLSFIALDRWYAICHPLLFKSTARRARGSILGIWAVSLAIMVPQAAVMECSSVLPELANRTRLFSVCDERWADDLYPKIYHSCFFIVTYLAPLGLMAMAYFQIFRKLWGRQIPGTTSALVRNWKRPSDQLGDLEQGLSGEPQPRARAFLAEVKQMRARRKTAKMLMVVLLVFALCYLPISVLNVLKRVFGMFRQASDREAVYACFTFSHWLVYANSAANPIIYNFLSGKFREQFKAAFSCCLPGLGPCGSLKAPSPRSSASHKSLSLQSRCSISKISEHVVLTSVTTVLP

SMILES	IC50 [1] [nM]	IC50 [2] [nM]
COc1ccnc(OC)c1C1CCCC(=O)N1Cc1ccc2oc3ccccc3c2c1 (centres unmarked) [Example 57, 1-(dibenzo[b,d]furan-2-ylmethyl)-6-(2,4-dimethoxypyridin-3-yl)piperidin-2-one]	5	3
COc1ccnc(OC)c1C1CCCC(=O)N1Cc1ccc2nc(C)sc2c1 (centres unmarked) [Example 58, 6-(2,4-dimethoxypyridin-3-yl)-1-((2-methylbenzo[d]thiazol-6-yl)methyl)piperidin-2-one]	2560	1530
COc1ccnc(OC)c1C1CCCC(=O)N1Cc1ccc(F)c(-c2ccccn2)c1 (centres unmarked) [Example 59, 6-(2,4-dimethoxypyridin-3-yl)-1-(4-fluoro-3-(pyridin-2-yl)benzyl)piperidin-2-one]	207	135
COc1ccnc(OC)c1C1CCCC(=O)N1Cc1cccc(-c2ccccc2)c1 (centres unmarked) [Example 60, 1-([1,1′-biphenyl]-3-ylmethyl)-6-(2,4-dimethoxypyridin-3-yl)piperidin-2-one]	39	34
COc1cncc(OC)c1C1CCCC(=O)N1Cc1cccc(-c2nccs2)c1 (centres unmarked) [Example 61, 6-(3,5-dimethoxypyridin-4-yl)-1-(3-(thiazol-2-yl)benzyl)piperidin-2-one]	40	26
COc1cncc(OC)c1C1CCCC(=O)N1Cc1cccc(-c2csc(C)n2)c1 (centres unmarked) [Example 62, 6-(3,5-dimethoxypyridin-4-yl)-1-(3-(2-methylthiazol-4-yl)benzyl)piperidin-2-one]	25	33
COc1cncc(OC)c1C1CCCC(=O)N1Cc1cccc(-c2ccccn2)c1 (centres unmarked) [Example 63, 6-(3,5-dimethoxypyridin-4-yl)-1-(3-(pyridin-2-yl)benzyl)piperidin-2-one]	135	90
COc1cncc(OC)c1C1CCCC(=O)N1Cc1csc(-c2ccccc2)n1 (centres unmarked) [Example 64, 6-(3,5-dimethoxypyridin-4-yl)-1-((2-phenylthiazol-4-yl)methyl)piperidin-2-one]	618	246
COc1cncc(OC)c1C1CCCC(=O)N1Cc1ccc2oc3ccccc3c2c1 (centres unmarked) [Example 65, 1-(dibenzo[b,d]furan-2-ylmethyl)-6-(3,5-dimethoxypyridin-4-yl)piperidin-2-one]	6	1
COc1cncc(OC)c1C1CCCC(=O)N1Cc1cccc(-n2cccn2)n1 (centres unmarked) [Example 66, 1-((6-(1H-pyrazol-1-yl)pyridin-2-yl)methyl)-6-(3,5-dimethoxypyridin-4-yl)piperidin-2-one]	3100	3700
COc1cncc(OC)c1C1CCCC(=O)N1Cc1cccc(-n2nccn2)c1 (centres unmarked) [Example 67, 1-(3-(2H-1,2,3-triazol-2-yl)benzyl)-6-(3,5-dimethoxypyridin-4-yl)piperidin-2-one]	163	156
COc1cncc(OC)c1C1CCCC(=O)N1Cc1cccc(-c2ccccc2)c1 (centres unmarked) [Example 68, 1-([1,1′-biphenyl]-3-ylmethyl)-6-(3,5-dimethoxypyridin-4-yl)piperidin-2-one]	45	31
COc1cccc(OC)c1C1CCCC(=O)N1Cc1cnc(OC(F)F)c(C)c1 (centres unmarked) [Example 69, 1-((6-(difluoromethoxy)-5-methylpyridin-3-yl)methyl)-6-(2,6-dimethoxyphenyl)piperidin-2-one]	247	77
COc1cccc(OC)c1C1CCCC(=O)N1Cc1csc(C)n1 (centres unmarked) [Example 71, 6-(2,6-dimethoxyphenyl)-1-((2-methylthiazol-4-yl)methyl)piperidin-2-one]	> 12600	6190
COc1cccc(OC)c1C1CCCCC(=O)N1Cc1cccc(-c2ccccc2)c1 (centres unmarked) [Example 72, 1-([1,1′-biphenyl]-3-ylmethyl)-7-(2,6-dimethoxyphenyl)azepan-2-one]	3	12
COc1cccc(OC)c1C1CCCCC(=O)N1Cc1ccc(Oc2ccccc2)cc1 (centres unmarked) [Example 73, 7-(2,6-dimethoxyphenyl)-1-(4-phenoxybenzyl)azepan-2-one]	186	187
COc1cccc(OC)c1C1CCCCC(=O)N1Cc1cccc(Oc2ccccc2)c1 (centres unmarked) [Example 74, 7-(2,6-dimethoxyphenyl)-1-(3-phenoxybenzyl)azepan-2-one]	137	98
COc1cccc(OC)c1C1CCCCC(=O)N1Cc1ccc2ccccc2c1 (centres unmarked) [Example 75, 7-(2,6-dimethoxyphenyl)-1-(naphthalen-2-ylmethyl)azepan-2-one]	12	32
COc1cccc(OC)c1C1CCCCC(=O)N1Cc1ccc(-c2ccccc2)cc1 (centres unmarked) [Example 77, 1-([1,1′-biphenyl]-4-ylmethyl)-7-(2,6-dimethoxyphenyl)azepan-2-one]	305	188
COc1cccc(OC)c1C1CCCCC(=O)N1Cc1ccccc1-c1ccccc1 (centres unmarked) [Example 78, 1-([1,1′-biphenyl]-2-ylmethyl)-7-(2,6-dimethoxyphenyl)azepan-2-one]	323	806

SMILES	IC50 [1] [nM]	IC50 [2] [nM]
COc1cccc(OC)c1C1CCCCC(=O)N1Cc1ccc2ccccc2n1 (centres unmarked) [Example 79, 7-(2,6-dimethoxyphenyl)-1-(quinolin-2-ylmethyl)azepan-2-one]	21	82
COc1cccc(OC)c1C1CCCCC(=O)N1Cc1cnc2ccccc2c1 (centres unmarked) [Example 80, 7-(2,6-dimethoxyphenyl)-1-(quinolin-3-ylmethyl)azepan-2-one]	715	1040
COc1cccc(OC)c1C1CCCCC(=O)N1Cc1ccnc(-c2ccccc2)c1 (centres unmarked) [Example 81, 7-(2,6-dimethoxyphenyl)-1-((2-phenylpyridin-4-yl)methyl)azepan-2-one]	7	58
COc1cccc(OC)c1C1CCCCC(=O)N1Cc1cccc(-c2ccccc2)n1 (centres unmarked) [Example 82, 7-(2,6-dimethoxyphenyl)-1-((6-phenylpyridin-2-yl)methyl)azepan-2-one]	7	26
COc1cccc(OC)c1C1CCCCC(=O)N1Cc1cccc(-c2ncccn2)c1 (centres unmarked) [Example 83, 7-(2,6-dimethoxyphenyl)-1-(3-(pyrimidin-2-yl)benzyl)azepan-2-one]	3	19
COc1cccc(OC)c1C1CCCCC(=O)N1Cc1cccc(-c2ccccn2)c1 (centres unmarked) [Example 84, 7-(2,6-dimethoxyphenyl)-1-(3-(pyridin-2-yl)benzyl)azepan-2-one]	3	7
COc1cccc(OC)c1C1CCCCC(=O)N1Cc1cccc(-c2nccs2)c1 (centres unmarked) [Example 85, 7-(2,6-dimethoxyphenyl)-1-(3-(thiazol-2-yl)benzyl)azepan-2-one]	2	3
COc1cccc(OC)c1C1CCCCC(=O)N1Cc1ccc2c(c1)c1ccccc1n2C (centres unmarked) [Example 86, 7-(2,6-dimethoxyphenyl)-1-((9-methyl-9H-carbazol-3-yl)methyl)azepan-2-one]	45	71
COc1cccc(OC)c1C1CCCCC(=O)N1Cc1cccc(-c2cccnc2)c1 (centres unmarked) [Example 87, 7-(2,6-dimethoxyphenyl)-1-(3-(pyridin-3-yl)benzyl)azepan-2-one]	21	46
COc1cccc(OC)c1C1CCCCC(=O)N1Cc1cccc(N2CCCCC2)c1 (centres unmarked) [Example 88, 7-(2,6-dimethoxyphenyl)-1-(3-(piperidin-1-yl)benzyl)azepan-2-one]	12	58
COc1cccc(OC)c1C1CCCCC(=O)N1Cc1cnc(OC(F)F)c(Cl)c1 (centres unmarked) [Example 89, 1-((5-chloro-6-(difluoromethoxy)pyridin-3-yl)methyl)-7-(2,6-dimethoxyphenyl)azepan-2-one]	385	85
COc1cccc(OC)c1C1CCCCC(=O)N1Cc1ccc2oc3ccccc3c2c1 (centres unmarked) [Example 90, 1-(dibenzo[b,d]furan-2-ylmethyl)-7-(2,6-dimethoxyphenyl)azepan-2-one]	1	3
COc1cccc(OC)c1C1CCCCC(=O)N1Cc1cccc(-c2csc(C)n2)c1 (centres unmarked) [Example 91, 7-(2,6-dimethoxyphenyl)-1-(3-(2-methylthiazol-4-yl)benzyl)azepan-2-one]	1	3
COc1cccc(OC)c1C1CCCCC(=O)N1Cc1cncc(-c2ccccc2)c1 (centres unmarked) [Example 92, 7-(2,6-dimethoxyphenyl)-1-((5-phenylpyridin-3-yl)methyl)azepan-2-one]	1060	455
COc1cccc(OC)c1C1CCCCC(=O)N1Cc1cccc(N2CCCC2)c1 (centres unmarked) [Example 93, 7-(2,6-dimethoxyphenyl)-1-(3-(pyrrolidin-1-yl)benzyl)azepan-2-one]	3	16
COc1cccc(OC)c1C1CCCCC(=O)N1Cc1cnn(-c2ccccc2)c1 (centres unmarked) [Example 94, 7-(2,6-dimethoxyphenyl)-1-((1-phenyl-1H-pyrazol-4-yl)methyl)azepan-2-one]	121	378
COc1cccc(OC)c1C1CCCCC(=O)N1Cc1ccc2sc(C)nc2c1 (centres unmarked) [Example 95, 7-(2,6-dimethoxyphenyl)-1-((2-methylbenzo[d]thiazol-5-yl)methyl)azepan-2-one]	8	29
COc1cccc(OC)c1C1CCCCC(=O)N1Cc1cccc(-c2ccncc2)c1 (centres unmarked) [Example 96, 7-(2,6-dimethoxyphenyl)-1-(3-(pyridin-4-yl)benzyl)azepan-2-one]	16	85
COc1cccc(OC)c1C1CCCCC(=O)N1Cc1cccc(-n2cccn2)c1 (centres unmarked) [Example 97, 1-(3-(1H-pyrazol-1-yl)benzyl)-7-(2,6-dimethoxyphenyl)azepan-2-one]	5	20
COc1cccc(OC)c1C1CCCCC(=O)N1Cc1csc(-c2ccccc2)n1 (centres unmarked) [Example 98, 7-(2,6-dimethoxyphenyl)-1-((2-phenylthiazol-4-yl)methyl)azepan-2-one]	6	6
